Measurements taken from US10233182B2, “Substituted spirocyclic inhibitors of autotaxin” (X-Rx, Inc., priority 2014, dated 2019).
pIC50: −log10 of the molar value.

Target: Autotaxin (Homo sapiens (Human), UniProt Q13822)
Test: Autotaxin LPC Cascade Assay
Format: biochemical
Conditions: Autotaxin 5 nM, LPC 100 μM, choline oxidase/HRP/Ampliflu Red fluorescence read-out, 2% DMSO, RT; read-out: IC50 ATX Activity
Protocol: Autotaxin LPC Cascade Assay:
HA130 and Test Compounds:
Prepare a 1 mM stock of HA130 and a 3 mM stock of each compound in 100% DMSO. Perform a 1:3 serial dilution in DMSO (transfer 5 l of compound to 10 l of DMSO). Add 240 l of buffer to generate a top working concentration of 40 µM (HA130) and 120 µM (test compound) in 4% DMSO.
Ampliflu Red—Prepare a stock of 5 mM from 100 mM in 100% DMSO. Further dilute to a working concentration of 400 μM in buffer (8% DMSO).
Together with compound this yields a 2% DMSO final concentration.
Choline Oxidase/HRP—0.8 U/mL CO and 8 U/mL HRP.
Incubate for 10 mins at RT. Add 5 µl of LPC and incubate for 1 hr on the plate shaker. Prepare the CO/HRP and AR immediately prior to use. Add 2.5 l of CO/HRP and follow with 2.5 l AR. Note order of addition, CO/HRP mix before AR. Read fluorescence intensity (ex/em: 530/590 nm) kinetically for 30 min at RT on the Tecan M1000.

Compound | pIC50
Cc1cccc(C(=O)N[C@@H](C(=O)N2CCC3(CC2)C(=O)N(C)CN3c2ccccc2)C2CCOCC2)c1 (single isomer, unassigned) [Example 129] | 6.00 to 6.30
CCc1ccc(F)c(C(=O)N[C@@H](C(=O)N2CCC3(CC2)C(=O)N(C)[C@H](C)N3c2ccc(C(=O)O)cc2)C(C)C)c1 (single isomer, unassigned) [Example 210] | > 6.30
CCc1ccc(F)c(C(=O)N[C@@H](C(=O)N2CCC3(CC2)C(=O)N(C)[C@@H](C)N3c2ccc(C(=O)O)cc2)C(C)C)c1 (single isomer, unassigned) [Example 211] | > 6.30
Cc1cccc(C(=O)N[C@@H](C(=O)N2CCC3(CC2)C(=O)N(C)C(=O)N3c2ccccc2)C2CCCCC2)c1 [Example 1, (R)—N-(1-Cyclohexyl-2-(3-methyl-2,4-dioxo-1-phenyl-1,3,8-triazaspiro[4.5]decan-8-yl)-2-oxoethyl)-3-methylbenzamide] | > 6.30
CC(C)[C@@H](NC(=O)c1cccc(F)c1)C(=O)N1CCC2(CC1)C(=O)N(C)C(=O)N2c1ccccc1 [Example 2, (R)-3-Fluoro-N-(3-methyl-1-(3-methyl-2,4-dioxo-1-phenyl-1,3,8-triazaspiro[4.5]decan-8-yl)-1-oxobutan-2-yl)benzamide] | ≤ 6.00
Cc1cccc(C(=O)N[C@@H](C(=O)N2CCC3(CC2)C(=O)N(C)C(=O)N3c2ccccc2)C(C)C)c1F [Example 3, (R)-2-Fluoro-3-methyl-N-(3-methyl-1-(3-methyl-2,4-dioxo-1-phenyl-1,3,8-triazaspiro[4.5]decan-8-yl)-1-oxobutan-2-yl)benzamide] | 6.00 to 6.30
CC[C@@H](C)[C@@H](NC(=O)c1cccc(C)c1F)C(=O)N1CCC2(CC1)C(=O)N(C)C(=O)N2c1ccccc1 [Example 4, 2-Fluoro-3-methyl-N-((2R,3R)-3-methyl-1-(3-methyl-2,4-dioxo-1-phenyl-1,3,8-triazaspiro[4.5]decan-8-yl)-1-oxopentan-2-yl)benzamide] | > 6.30
CCc1ccc(F)c(C(=O)N[C@@H](C(=O)N2CCC3(CC2)C(=O)N(CC#N)C(=O)N3c2ccc(OC)cc2)C(C)C)c1 [Example 5, (R)—N-(1-(3-(Cyanomethyl)-1-(4-methoxyphenyl)-2,4-dioxo-1,3,8-triazaspiro[4.5]decan-8-yl)-3-methyl-1-oxobutan-2-yl)-5-ethyl-2-fluorobenzamide] | > 6.30
COc1ccc(N2C(=O)N(C)C(=O)C23CCN(C(=O)[C@H](NC(=O)c2cc(C(F)(F)F)ccc2F)C(C)C)CC3)cc1F [Example 6, (R)-2-Fluoro-N-(1-(1-(3-fluoro-4-methoxyphenyl)-3-methyl-2,4-dioxo-1,3,8-triazaspiro[4.5]decan-8-yl)-3-methyl-1-oxobutan-2-yl)-5-(trifluoromethyl)benzamide] | > 6.30
CC(C)[C@@H](NC(=O)c1cc(C(F)(F)F)ccc1F)C(=O)N1CCC2(CC1)C(=O)N(C)C(=O)N2c1ccc(C#N)cc1 [Example 7, (R)—N-(1-(1-(4-Cyanophenyl)-3-methyl-2,4-dioxo-1,3,8-triazaspiro[4.5]decan-8-yl)-3-methyl-1-oxobutan-2-yl)-2-fluoro-5-(trifluoromethyl)benzamide] | > 6.30
CC(C)[C@@H](NC(=O)c1cc(C(F)(F)F)ccc1F)C(=O)N1CCC2(CC1)C(=O)N(C)C(=O)N2c1cccc(C#N)c1 [Example 8, (R)—N-(1-(1-(3-Cyanophenyl)-3-methyl-2,4-dioxo-1,3,8-triazaspiro[4.5]decan-8-yl)-3-methyl-1-oxobutan-2-yl)-2-fluoro-5-(trifluoromethyl)benzamide] | > 6.30
CC(C)[C@@H](NC(=O)c1cc(C(F)(F)F)ccc1F)C(=O)N1CCC2(CC1)C(=O)N(C)C(=O)N2c1ccc(S(C)(=O)=O)cc1 [Example 9, (R)-2-Fluoro-N-(3-methyl-1-(3-methyl-1-(4-(methylsulfonyl)phenyl)-2,4-dioxo-1,3,8-triazaspiro[4.5]decan-8-yl)-1-oxobutan-2-yl)-5-(trifluoromethyl)benzamide] | 6.00 to 6.30
